Legend:
Type in all cases: cell-based, human
Treg cells = experiment: Treg-cell vs Tconv-cell expansion and proliferation in HD precultured PBMCs (flow cytometry, Ki67, CFSE); settings: 0.01 mM MP, TAB08 1 μg/mL
Experimental: Treg-cell (CD25^hiFoxp3^+) and activated Tconv-cell (CD25^loFoxp3^−) frequencies among gated CD4^+ T cells were then assessed by flow cytometry using a live light-scatter entrance gate. […] Treg-cell frequencies among CD4^+ T cells and absolute numbers of Treg cells were determined by flow cytometry after 5 days of culture. […] Treg-cell versus Tconv-cell expansion in CD25-depleted and nondepleted PBMC cultures was then assessed by flow cytometry, using a live light-scatter entrance gate followed by gates for CD4^+Foxp3^− (left dot plots) and CD4^+Foxp3^+ (right dot plots). […] Proliferation was assessed by, in Panel D, the expression of Ki67 and Panel E CFSE dilution. *denotes insufficient number of cells for evaluation. […]
Cell proliferation was measured from day 2 to 3 as radioactivity incorporated from [H^3] thymidine (1 μCi per well, Hartmann Analytic GmbH) into DNA, using a liquid scintillation counter (PerkinElmer). Results are expressed as counts per minute (cpm). […]
For phenotypic analysis, cells were stained with the appropriate antibodies for 20 min at 4° C., washed once with FACS buffer (PBS, 0.1% BSA, 0.2% NaN3), and fixed with 2% paraformaldehyde. […] Data were analyzed using FlowJo Version 9.4.11 software (TreeStar). Results are shown as log 10 fluorescence intensities. […]

[1] = system: anti-CD3 stimulated CFSE-labeled CD4+ T cells; experiment: Treg-cell suppression assay; settings: Enbrel during Treg-cell expansion, RA patient
[2] = system: PBMC samples taken from RA patients; experiment: In vitro RESTORE system: cytokine production by PBMC samples from RA patients; settings: OKT3 1 μg/ml
Excerpt: The purpose of the RESTORE method application was definition of safety parameters of the use of TAB08 antibody and the possibility of participation of RA patients in clinical trials, in particular:
To determine the levels of response of peripheral blood mononuclear cells of RA patients to various concentrations of TAB08, i.e. trace the dose-dependence of cytokine release by mononuclear cells exposed to TAB08 in vitro.
To determine the ability of methylprednisolone, which has an anti-inflammatory effect, to suppress TAB08-induced cytokine release.
(§1) PBMC were cultured in supplemented RPMI 1640 containing 10% AB-positive heat-inactivated human serum (Sigma) for two days at high cell density (HD; 1×10^7/ml) to allow tissue-like interactions. Cells were then harvested and cultured under standard conditions (1×10^6/ml) in 96 or 48-well flat-bottom tissue culture plates in a final volume of 0.2 or 0.6 ml in a humidified incubator at 37° C. with 5% CO2. Intracellular Ki67 staining was used to measure cell proliferation. For intracellular staining of Foxp3, Ki67 and CD4, cells were first surface stained, permeabilized with Fix/Perm (eBioscience), and stained with the appropriate antibodies diluted in Perm/Wash (eBioscience). FACS analysis was performed using a FACSCalibur flow cytometer (BD Biosciences). Data were analyzed using FlowJo software (TreeStar).

regulatory T cells = experiment: Regulatory T cells and Ki67+ Tregs in RESTORE system, PBMC samples from RA patients (Table 16)
Experimental: as §1

C[C@H]1C[C@@H]2[C@H]([C@@H](O)C[C@@]3(C)[C@H]2CC[C@]3(O)C(=O)CO)[C@@]2(C)C=CC(=O)C=C12 [MP, methylprednisolone]
suppression of division of CD4+ Tconv cells (CFSE) (Treg cells): ~80%

Enbrel
effect on suppressive activity of TAB08-expanded Treg cells [1]: did not lead to further enhancement of suppressive activity

OKT3: Clinical grade OKT3 (Janssen-Cilag), anti-CD3 (anti-TCR) antibody used as stimulus
IL-2 production [2]: 0.00 pg/mL | % FoxP3+/CD4+ (regulatory T cells; Patient 0104, OKT3 1 μg_mL): 4.96% | % Ki67+/FoxP3+ CD4+ (regulatory T cells; Patient 0104, OKT3 1 μg_mL): 84.9% | % FoxP3+/CD4+ (regulatory T cells; Patient 0105, OKT3 1 μg_mL): 5.1% | % Ki67+/FoxP3+ CD4+ (regulatory T cells; Patient 0105, OKT3 1 μg_mL): 80.5% | % FoxP3+/CD4+ (regulatory T cells; Patient 0204, OKT3 1 μg_mL): 4.52% | % Ki67+/FoxP3+ CD4+ (regulatory T cells; Patient 0204, OKT3 1 μg_mL): 77.7% | % FoxP3+/CD4+ (regulatory T cells; Patient 0205, OKT3 1 μg_mL): 4.62% | % Ki67+/FoxP3+ CD4+ (regulatory T cells; Patient 0205, OKT3 1 μg_mL): 67.7% | % FoxP3+/CD4+ (regulatory T cells; Patient 0206, OKT3 1 ug_ml): 2.79% | % Ki67+/FoxP3+ CD4+ (regulatory T cells; Patient 0206, OKT3 1 ug_ml): 80.8%
